BigSolDB 2.1

O=C(NC(=O)c1c(F)cccc1F)Nc1cc(Cl)c(F)c(Cl)c1F
solubility (mole fraction)
Conditions | 278.15 K | 283.15 K | 288.15 K | 293.15 K | 298.15 K | 303.15 K | 308.15 K | 313.15 K | 318.15 K | 323.15 K
in DMF | 0.174 | 0.186 | 0.2 | 0.213 | 0.228 | 0.243 | 0.26 | 0.275 | 0.292 | 0.308
in ethanol | 0.0485 | 0.0515 | 0.0549 | 0.0582 | 0.0614 | 0.0647 | 0.0676 | 0.0708 | 0.0744 | 0.0782
in methanol | 0.0672 | 0.0729 | 0.0792 | 0.0854 | 0.0925 | 0.1 | 0.108 | 0.116 | 0.124 | 0.133
in propylene glycol | 0.0199 | 0.0212 | 0.0227 | 0.0241 | 0.0255 | 0.0269 | 0.0282 | 0.0296 | 0.0311 | 0.0327
in water | 6.82e-06 | 7.49e-06 | 8.19e-06 | 8.88e-06 | 9.72e-06 | 1.07e-05 | 1.17e-05 | 1.26e-05 | 1.36e-05 | 1.47e-05
